Assay results published in patent US11684667B2 (priority 2017, dated 2023).

Assays:
[1] = test system: BMDMs; format: cell-based, mouse; details: zVAD 20 μM
Protocol: Cell death assays. Cell viability and Caspase 3/7 activity were measured using CellTiter Glo (G7571, Promega) or CaspaseGlo 3/7 (G8091, Promega) respectively, according to the manufacturer's protocol, with modification.
Cell death assays. Cell viability and Caspase 3/7 activity were measured using CellTiter Glo (G7571, Promega) or CaspaseGlo 3/7 (G8091, Promega) respectively, according to the manufacturer's protocol, with modification. Briefly, 3.0×10^5 BMDMs/well were plated in 24-well plates and infected at an MOI of 0.1 for 1 h in serum-free media. Media was replaced with complete media, or for addition of chemical inhibitors, viral inoculum was replaced with completed BMM media containing indicated concentration of inhibitors. Infected BMDMs were incubated for 24h at 37° C./5% CO2. BMDMs were washed twice with 1×PBS and lysed with 100 μL Glo reagent/medium mixture (1:1). 50 μL of cell lysate was used for measuring the luminescence signal. Standard deviation and unpaired t test were performed on technical triplicates and data are representative of three independent experiments. Graphs of cell viability were generated using Prism 7 software (GraphPad Software, Inc.).

[2] = test system: BMDMs; format: cell-based, mouse; details: N15m1-infected BMDMs, MOI 0.1, 18 hpi; zVAD 20 μM, C16 1 μM
Protocol: Bioanalyzer RNA analysis. Equal amounts of total RNA purified from BMDMs were analyzed on an Agilent 2100 Bioanalyzer using RNA Nano LabChips.

zVAD
prevention of virus-induced cell death by inhibitor ([1]; N15m1-infected BMDMs, 24 hpi, Nec-1 25 μM, VX-765 20 μM): prevented virus-induced cell death
effect of inhibitor on caspase 3/7 activation in N15m1-infected BMDMs ([1]; C16 1 μM): inhibited by zVAD
effect of inhibitor on degradation of host rRNA [2]: not inhibited
